Source: paper PMC8745263 (International Journal of Molecular Sciences, 2021)

Experiment: RP-HPLC mobility of peptide before and after H2O2 oxidation (hydrophilicity)
Format: physicochemical
Settings: RP-HPLC/LC-MS, C18 column, H2O/CH3CN with TFA; before and after 3% H2O2 oxidation; Supplementary Figure S1A,B
Experimental: GDF11[48-64]wt was converted to the variant with oxidized methionines by treatment with 3% H2O2, monitoring the reaction progression by reverse-phase HPLC chromatography (RP-HPLC) and mass spectrometry, using the un-oxidized precursor as control. The occurrence of the peroxide oxidation rendered the peptide more hydrophilic than its unoxidized counterpart, as clearly indicated in Supplementary Figure S1A,B by the shift in the RP-HPLC mobility of GDF11[48-64]ox to shorter retention time (9.97 min) with respect to that of GDF11[48-64]wt (11.41 min).
All protected amino acids, including 7-N-Fmoc-aminocoumarin-4-acetic acid (Fmoc-ACA-OH), Fmoc-Met(O)-OH, the coupling agents (1-[Bis(dimethylamino)methylene]-1H-1,2,3-triazol [4,5-b]pyridinium 3-oxid-hexafluorophosphate (Hexafluorophosphate Azabenzotriazole Tetramethyl Uronium, HATU), diisopropylcarbodiimide (DIC), ethyl cyanohydroxyiminoacetate (OXYMA)) and Fmoc-Rink Amide AM Resin used for peptide synthesis were purchased from IRIS Biotech GmbH (Marktrewitz, DE). Acetonitrile (CH3CN), dimethylformamide (DMF), trifluoroacetic acid (TFA), and methanol (CH3OH) were purchased from ROMIL (Dublin, Ireland). […]
Figure S1. Oxidation reaction of GDF11[48-64]wt with hydrogen peroxide monitored by LC-ESI-TOF-MS (LC-MS) analysis. […] After incubation, the samples were collected and analyzed by LC-MS. […]

Row | Substance | RP-HPLC retention time (shift to shorter time = more hydrophilic)
1 | Ac-EYM(ox)FM(ox)QKYPHTHLVQQA-NH2 [GDF11[48-64] wt ox, GDF11[48-64]wt bearing sulphoxide groups on M50 and M52, by 3% H2O2 treatment] | 9.97 min
2 | Ac-EYMFMQKYPHTHLVQQA-NH2 [GDF11[48-64]wt, peptide reproducing the 48–64 region of GDF11 protein, acetylated and amidated] | 11.41 min
